Reference: PubChem BioAssay AID179 (DTP/NCI, 2004)
Active and inactive are the calls of the source.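 How the source made its calls: active means compounds giving half or more protection of infected cells from virus-caused growth loss, again on retest; inactive means the rest.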

System: CEM cells HIV-1 protection, formazan growth assay
Test: NCI AIDS Antiviral Assay
Details: for IC50: measured here: growth of uninfected CEM cells
In short: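 CEM (human) cells, HIV-1 infected vs uninfected, 5-point dosing, formazan growth read-out. Retest threshold 50% protection.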

Structure (SMILES)	EC50 [µM]	IC50 [µM]	outcome
CCOP(=O)(OCC)C(C(=O)OC)C(=O)C(=O)Nc1c(C)cc(Br)cc1C (configuration not stated)	> 537	> 537	–
O=S1(=O)CC(N2CCOCC2)C2=C(O1)c1sc(-c3ccccc3)nc1CC2 (configuration not stated)	–	–	inactive
Cc1ccc(C2=C(C#N)C(=O)N3CCN=C3S2)cc1	> 200	> 100	–
CC(=O)Nc1ccc(S(=O)(=O)NCCSSCCNS(=O)(=O)c2ccc(NC(C)=O)cc2)cc1	> 200	> 200	–
CN(C(=O)c1ccc(Cl)s1)C(=S)N(C)C(=O)c1ccc(Cl)s1	> 120	115	–
CC1=CCC2(C#N)CCC1C2O (configuration not stated)	> 1510	> 1510	–
CC(C)(C)OC(=O)N1CCC(C(=O)O)CC1	> 200	> 200	–
CCOC(=O)c1ccc(CSc2ccccc2C(=O)OCC)cc1	> 3.02	> 3.02	–
O=C(Nc1nc2ccsc2s1)c1ccccc1	> 501	> 501	–
Nc1nc2c(ccn2[C@H]2C=C[C@@H](CO)C2)c(=O)[nH]1	> 275	> 275	–
CCOC(=O)CCC(NC(=O)c1ccc(Nc2nc3ccccc3nc2C(=O)OCC)cc1)C(=O)OCC (configuration not stated)	> 138	85.1	–
COc1cccc(N/C(C)=C2/CCOC2=O)c1	> 200	105	–
Clc1ccc(-c2c(C3=NCCCN3)nnn2-c2ccccc2)cc1	> 389	> 389	–
C=C=C(CCC(=O)c1ccccc1)S(=O)(=O)c1ccccc1	> 200	11	–
O=C(CCC(=O)C1Cc2ccccc2C1=O)Nc1cccc(C(F)(F)F)c1 (configuration not stated)	> 661	> 661	–
CN1CCC(O)C(CNC23CC4CC(CC(C4)C2)C3)C1 (configuration not stated)	97.7	178	–
CCOC(=O)/C=C/C1(CCOC(C)=O)CCCCC1	> 200	174	–
O=C(Cn1c2ccc(Br)cc2c2nc3ccccc3nc21)N1CCOCC1	> 100	> 100	–
O=C(CC1(O)C(=O)Nc2c(Cl)cc(Cl)cc21)c1cccc2ccccc12 (configuration not stated)	> 67.6	> 67.6	–
O=[N+]([O-])c1ccc(-c2ccc(C3=Nn4c(nnc4-c4ccc(Cl)cc4)SC3)o2)cc1	> 1.74	> 1.74	–
Clc1ccc(SCCCCCCCCCCSc2ccc(Cl)cc2)cc1	> 23.4	> 23.4	–
O=S(=O)(O)CCCCS(=O)(=O)O	> 200	> 200	–
CN(C)c1nc(=Nc2ccc3ccccc3c2)ss1	–	–	inactive

Structure (SMILES)	EC50 [µM]	IC50 [µM]	outcome
CN1c2c(C(=O)NCCCN3CCOCC3)nn(-c3cccc(C(F)(F)F)c3)c2-c2ccccc2S1(=O)=O	> 66.1	> 66.1	–
CS(=O)(=O)CC(Cc1ccccc1)C(=O)O (configuration not stated)	–	–	inactive
OCCNc1nc(Cl)nc(Cl)n1	> 200	> 200	–
NNC(=O)CC(=O)N(C(=O)/C=C/c1ccccc1)c1ccc(Cl)cc1	> 200	> 200	–
COc1ccc(C2C(Cl)C(=O)N2NC(=O)c2ccc(NC(C)=O)cc2)cc1 (configuration not stated)	> 200	> 200	–
c1scc2c1COCCOCCOCCOCCOCCOC2	> 724	646	–
CCc1noc2ccccc12	> 339	> 339	–
COc1cc(C(O)C2C(=O)OCC2C2(c3ccc4c(c3)OCO4)SCCCS2)cc(OC)c1OC (configuration not stated)	> 36.3	> 36.3	–
Cc1ccc(S[C@@](C=O)(NC(=O)OCc2ccccc2)C(F)(F)F)cc1	–	–	inactive
c1ccc(-c2nc3nc4ccccc4nc3nc2-c2cccnc2)nc1	> 8.13	> 8.13	–
O=C(CCCN1CCC2(CC1)C(=O)NC(=O)N2c1ccccc1)c1ccc(F)cc1	> 200	> 200	–
O=C(Nc1ccccc1)c1cc2ccccc2oc1=O	> 100	> 100	–
Cc1ccc(S(=NS(=O)(=O)c2ccc(C)cc2)c2ccc(C)cc2)cc1	> 49	> 49	–
CC(=O)Nc1ccc(S(=O)(=O)N/N=C(\C)CN2C(=O)c3ccccc3C2=O)cc1	> 229	> 229	–
Oc1ccc(-c2nc(-c3cccnc3)c(-c3ccc(Cl)cc3)[nH]2)cc1O	> 200	13.8	–
O=S(=O)(Nc1ncccn1)c1ccc(N=NSC2=NC=NC3=NC=NC32)cc1 (configuration not stated)	> 200	5.25	–
CC(=O)N1c2ccccc2C2=NN(C)C(=N)SC21 (configuration not stated)	–	–	inactive
NC(CCCCCCCCCCP(=O)(O)O)C(=O)O (configuration not stated)	> 200	> 200	–
CCOC(=O)C(=Cc1ccco1)C(=O)OCC	> 151	85.1	–
Nc1ccc(C(=O)NN2C(=O)C(Cl)C2c2ccccc2Cl)cc1 (configuration not stated)	> 200	3.31	–
COc1ccc2cc1Oc1ccc(cc1)CC1c3cc4c(cc3CCN1C)Oc1c(OC)cc3c(c1O4)C(C2)N(C)CC3 (configuration not stated)	–	–	inactive
CC(C)(CN1CCCCC1)C(=O)CC(SCCS(=O)(=O)O)c1ccc(Cl)c(Cl)c1 (configuration not stated)	> 200	1.2	–
Nc1nc(-c2ccco2)cc(-c2ccc(CO)o2)n1	> 195	107	–

Structure (SMILES)	EC50 [µM]	IC50 [µM]	outcome
O=C(CCCC[n+]1ccccc1)Sc1ccccc1C(=O)Nc1ccc(S(=O)(=O)Nc2cnc3ccccc3n2)cc1	12.3	19.1	–
Cc1nnc(NS(=O)(=O)c2ccc(NC(=O)c3ccccc3SC(=O)CCCC[n+]3ccccc3)cc2)s1	51.3	55	–
CC12c3ccccc3C(OC=O)(c3ccccc31)C1(C)c3ccccc3C2(OC=O)c2ccccc21	> 3.09	> 3.09	–
CN(C)C(F)=PC(F)(F)F (configuration not stated)	> 251	> 251	–
C[N+](C)(C)CC(=O)N/N=C(\C(=O)NC1=C(Cl)C(=O)c2ccccc2C1=O)C(C#N)c1nc(-c2ccc([N+](=O)[O-])cc2)cs1 (configuration not stated)	–	–	inactive
CC(=O)OC1C[C@@H](C)C2(C[C@H](O)c3ccoc3)C(=O)OC[C@]13C2CCC(O)C31CO1 (some centres not stated)	> 200	> 200	–
NS(=O)(=O)c1ccc(NC(=S)/N=C/c2c(O)c3ccccc3[nH]c2=O)cc1	> 200	> 200	–
Cc1ccc(C)c(N2C(=O)C(=O)C(c3nc4ccccc4s3)/C(=N/NC(=O)NN)C2=O)c1 (configuration not stated)	–	–	inactive
[N-]=[N+]=Nc1c([N+](=O)[O-])c(=O)n2c3c(cccc13)CCC2	–	–	inactive
NCCCN1CCN(CCCNc2ccc3ncn4c5ccccc5c(=O)c2c34)CC1	> 25.1	1.2	–
CC1(C)CNC(=O)C2(C=NC(C)(C)CNC(=O)C3(C=N1)CCCO3)CCCO2 (configuration not stated)	> 25.1	> 25.1	–
Brc1ccc(-c2nc3sc(-c4ccc5c(c4)OCO5)nn3c2Br)cc1	> 200	> 200	–
Cc1ccccc1NC(=O)C(=O)CC(=O)C1CCOC1=O (configuration not stated)	–	–	inactive
O=C1CSC(c2cccc([N+](=O)[O-])c2)N1c1ccc(-c2ccc(-n3c(-c4ccccc4)nc4ccccc4c3=O)cc2)cc1 (configuration not stated)	> 200	28.2	–
C=CCC1CC(n2cc(C)c(=O)[nH]c2=O)OC1CO[Si](C)(C)C(C)(C)C (configuration not stated)	> 200	18.2	–
Cc1cc(=O)[nH]c2cc(NC(=O)C(C)NC(=O)C(C)NC(=O)C(C)NC(=O)OC(C)(C)C)ccc12 (configuration not stated)	> 200	> 200	–
CC(C)=N.[C-]#[O+].[C-]#[O+].[C-]#[O+].[C-]#[O+].[C-]#[O+].[W]	> 13.8	> 13.8	–
CN1C/C(=C\c2cccs2)c2[nH]c(=O)c(C#N)c(-c3cccs3)c2C1	> 200	> 200	–
O=C(O)C1(Cc2ccccc2)Cc2ccccc2C1	> 200	> 200	–
Cc1ccc(NC(=O)NC(=O)CCl)cc1	> 31.6	7.76	–
O=C1C(O)=C(c2ccccc2)C(=O)C(O)=C1c1ccccc1	> 85.1	43.7	–
O=c1[nH]nc(Cl)c2c(O)c3ccccc3c(O)c12	> 67.6	32.4	–
Cc1nc2c(cc1C(=O)N/N=C/c1ccc([N+](=O)[O-])cc1)c(=O)n(C)c(=O)n2C	> 200	> 200	–

Structure (SMILES)	EC50 [µM]	IC50 [µM]	outcome
CSc1nc(N)c2c(n1)NCNS2(=O)=O	> 1000	> 1000	–
CC(=O)NC(CCC(=O)C=[N+]=N)C(=O)O (configuration not stated)	> 200	29.5	–
CCN(CC)c1nc(NC2CCCCC2)c2nc(N(CC)CC)nc(NC3CCCCC3)c2n1	> 11.2	0.537	–
O=C1NS(=O)(=O)c2ccccc21	> 1200	> 1200	–
CCN(CC)C(=O)Cn1c(C)cc2ccccc21	> 200	> 200	–
COc1ccc2c(=O)c(O)c(-c3ccccc3)oc2c1	> 66.1	12.3	–
CCCCCCc1cc2cc(-c3csc(CC#N)n3)c(=O)oc2cc1O	> 200	> 200	–
CN(C(=O)C12C3C4C1C1C2C3C41C#N)C(C)(C)C (configuration not stated)	> 41.7	> 41.7	–
COc1cc2c(c(C)c1O)[C@H]1COc3ccccc3[C@H]1O2	> 87.1	15.8	–
CCOC(=O)c1c(SCCN2CCCCC2)n(-c2ccccc2)c(=S)n(-c2ccccc2)c1=O	> 20	> 20	–
NC(c1ccccc1)P(=O)(OCc1ccc([N+](=O)[O-])cc1)OCc1ccc([N+](=O)[O-])cc1 (configuration not stated)	> 87.1	53.7	–
CN1CCC2(CC1)OCCN2CCO	> 1260	> 1260	–
CC(C)C1CC=CC2[C@H]3C(C)(CC[C@]12CBr)C(Br)CC[C@@]3(C)O (some centres not stated)	–	–	inactive
CC(=O)Nc1ccc(C2SCc3nc4ccccc4n32)cc1 (configuration not stated)	> 200	> 200	–
Cc1cc(S(=O)(=O)NC2=NCCCN2)c(S)cc1Cl	> 257	64.6	–
O=[N+]([O-])c1ccc2n[nH]nc2c1	> 200	182	–
COC(=O)[C@H](Cc1c[nH]c2ccccc12)NP(=O)(O)CCC1OC(n2cc(C)c(=O)[nH]c2=O)CC1N=[N+]=[N-] (some centres not stated)	> 200	> 200	–
COc1ccc(/C(C)=N/NC(=O)c2ccncc2)c(OC)c1	> 417	363	–
Cc1ccc2ccc3c(-c4ccccc4)cc(C)nc3c2n1	> 20	3.31	–
C/C=C/C=C\C=C/C(O)C(C)C(CCC(C)C1OC(=O)C=CC1C)OP(=O)(O)O (configuration not stated)	> 2	0.129	–
